# Test results reported in BindingDB's records for doi:10.1021/jm701437d (The Institute of Cancer Research, 2008).
# Biological target: not listed separately
# Assay: Inhibition of GSK3-beta in human PC3M cells by ELISA
row,SMILES,IC50 [µM]
1,NC1CCN(c2ncnc3n[nH]cc23)CC1,> 30
2,NC1(c2ccc(Cl)cc2)CCN(c2ncnc3[nH]ccc23)CC1,0.6
3,NCC1CCN(c2ncnc3[nH]ccc23)CC1,11
4,NCC1(c2ccc(Cl)cc2)CCN(c2ncnc3nc[nH]c23)CC1,1.3
5,NCC1(Cc2ccc(Cl)cc2)CCN(c2ncnc3nc[nH]c23)CC1,1.7
6,NCC1CCN(c2ncnc3n[nH]cc23)CC1,> 30
7,NC(c1ccc(Cl)cc1)C1CCN(c2ccnc3[nH]ccc23)CC1 (centres undefined),2
8,NC(c1ccccc1)C1CCN(c2ncnc3[nH]ccc23)CC1 (centres undefined),> 30
9,NCC1(c2ccc(Cl)cc2)CCN(c2ccnc3[nH]ccc23)CC1,1.4
10,NC1CCN(c2ncnc3[nH]ccc23)CC1,15

# Biological target: Glycogen synthase kinase-3 beta (Homo sapiens, UniProt P49841)
# Sequence (P49841 whole entry): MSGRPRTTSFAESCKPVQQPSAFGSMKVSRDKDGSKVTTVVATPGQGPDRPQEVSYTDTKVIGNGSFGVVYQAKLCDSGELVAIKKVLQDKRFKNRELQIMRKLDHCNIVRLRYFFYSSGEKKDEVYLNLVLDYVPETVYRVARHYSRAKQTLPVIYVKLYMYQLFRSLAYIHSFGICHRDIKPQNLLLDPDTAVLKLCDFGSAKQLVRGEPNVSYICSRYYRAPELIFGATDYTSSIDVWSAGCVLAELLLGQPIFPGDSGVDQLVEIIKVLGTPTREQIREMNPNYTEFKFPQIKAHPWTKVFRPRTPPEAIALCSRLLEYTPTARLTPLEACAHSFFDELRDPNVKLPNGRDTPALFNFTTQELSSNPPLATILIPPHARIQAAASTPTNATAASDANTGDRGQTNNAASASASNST
# Assay: Inhibition of GSK3-beta in human PC3M cells by ELISA
row,SMILES,IC50 [µM]
1,NCC1(Cc2ccc(Cl)cc2)CCN(c2ncnc3[nH]ccc23)CC1,1.4
2,NCC1(c2ccc(Cl)cc2)CCN(c2ncnc3[nH]ccc23)CC1,0.59
3,O=c1cc(N2CCOCC2)oc2c(-c3ccccc3)cccc12,8.1
4,NC(c1ccc(Cl)cc1)C1CCN(c2ccnc3[nH]ccc23)CC1 (centres undefined),0.59
